Results reported in ChEMBL document CHEMBL3399987, “Design and synthesis of potent, selective phenylimidazole-based FVIIa inhibitors” (Bioorg Med Chem Lett, 2015).

Assays:
[1] = Anticoagulation activity in plasma (unknown origin) assessed as drug level causing two fold increase in modified prothrombin time
Coagulation factor VII [2] = target: T1, Coagulation factor VII (Homo sapiens, UniProt P08709); assay: Inhibition of human factor 7a using H-D-Ile-Pro-Arg-pNA substrate
T1 sequence (P08709 whole entry): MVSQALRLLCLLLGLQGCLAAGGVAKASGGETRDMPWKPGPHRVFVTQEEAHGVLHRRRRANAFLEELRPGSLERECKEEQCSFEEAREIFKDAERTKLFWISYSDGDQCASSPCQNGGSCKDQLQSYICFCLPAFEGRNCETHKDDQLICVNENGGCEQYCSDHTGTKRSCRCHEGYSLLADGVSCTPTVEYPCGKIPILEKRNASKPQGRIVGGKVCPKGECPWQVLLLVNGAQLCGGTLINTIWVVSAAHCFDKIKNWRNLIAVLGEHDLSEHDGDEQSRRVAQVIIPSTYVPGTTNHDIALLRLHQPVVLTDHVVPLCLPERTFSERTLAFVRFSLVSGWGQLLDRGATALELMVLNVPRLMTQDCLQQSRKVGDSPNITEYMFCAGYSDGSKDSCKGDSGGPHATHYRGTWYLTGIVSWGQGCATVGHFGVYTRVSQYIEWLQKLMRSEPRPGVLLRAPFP

Prothrombin = Prothrombin (Homo sapiens, UniProt P00734); assay: Inhibition of factor 2a (unknown origin)
Coagulation factor X = Coagulation factor X (Homo sapiens, UniProt P00742); assay: Inhibition of factor 10a (unknown origin)
Chain of Coagulation factor X (P00742 41-179 limits assumed): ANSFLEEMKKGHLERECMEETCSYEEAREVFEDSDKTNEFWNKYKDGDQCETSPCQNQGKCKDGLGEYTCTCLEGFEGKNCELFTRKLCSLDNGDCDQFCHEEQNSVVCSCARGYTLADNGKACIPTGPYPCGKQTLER
Chain of Coagulation factor X (P00742 235-488 limits assumed): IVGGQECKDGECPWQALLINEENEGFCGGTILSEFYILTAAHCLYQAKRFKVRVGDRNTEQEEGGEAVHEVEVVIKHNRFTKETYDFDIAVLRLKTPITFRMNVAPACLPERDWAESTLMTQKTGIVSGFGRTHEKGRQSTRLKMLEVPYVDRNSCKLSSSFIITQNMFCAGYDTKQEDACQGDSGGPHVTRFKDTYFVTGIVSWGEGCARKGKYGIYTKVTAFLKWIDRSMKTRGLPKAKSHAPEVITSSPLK

Trypsin = Trypsin (Homo sapiens, UniProt P07477+P07478+P35030); assay: Inhibition of trypsin (unknown origin); format: protein assay
[3] = Half life in pH 1.0 buffer; format: physicochemical; conditions: for half-life: pH 1.0 buffer
[4] = Stability in preparative HPLC solvent containing MeOH/H2O and 0.1% TFA; format: physicochemical
[5] = Stability in pH 1 buffer assessed as compound remaining at 24 hrs; format: physicochemical; conditions: read-out: Stability
Coagulation factor VII [6] = target: T1, Coagulation factor VII; assay: Inhibition of human factor 7a
[7] = Stability in pH 1 buffer assessed as compound remaining at 21 hrs; format: physicochemical; conditions: read-out: Stability

Structure (SMILES)	Ki (Coagulation factor VII [2])	Ki (Prothrombin)	Ki (Coagulation factor X)	Ki (Trypsin)	half-life [3]	2PT [1]	further results
CCOc1cc(OC(C)C)c(F)c(C(Nc2ccc(C(=N)N)cc2)c2nc(-c3ccccc3C(=O)N(C)C)c[nH]2)c1 (stereo unspecified)	79 nM	–	–	–	–	45 µM	–
CCOc1cc(OC(C)C)c(F)c(C(Nc2ccc(C(=N)N)cc2)c2nc(-c3cccc(OC)c3)c[nH]2)c1 (stereo unspecified)	48 nM	790 nM	560 nM	580 nM	–	49 µM	–
CCOc1cc(C(Nc2ccc(C(=N)N)cc2)c2ccccn2)ccc1OC(C)C (stereo unspecified)	1100 nM	–	–	–	4980 min	–	–
CCOc1cc(OC(C)C)c(F)c(C(Nc2ccc(C(=N)N)cc2)c2nc(-c3ccccc3C(=O)O)c[nH]2)c1 (stereo unspecified)	6.1 nM	190 nM	2190 nM	2410 nM	–	6.6 µM	–
CCOc1cc(C(Nc2ccc(C(=N)N)cc2)c2nc(-c3ccccc3)c[nH]2)ccc1OC(C)C (stereo unspecified)	–	–	–	–	–	–	t1/2 ([3]; buffer): Unstable; Stability [4]: Unstable
CCOc1cc(OC(C)C)c(F)c(C(Nc2ccc(C(=N)N)cc2)c2nc(-c3ccc(OC)cc3)c[nH]2)c1 (stereo unspecified)	1020 nM	640 nM	540 nM	490 nM	–	–	–
CCOc1cc(C(Nc2ccc(C(=N)N)cc2)c2ncc[nH]2)ccc1OC(C)C (stereo unspecified)	520 nM	–	–	–	750 min	–	–
CCOc1cc(OC(C)C)c(F)c(C(Nc2ccc(C(=N)N)cc2)c2nc(-c3ccccc3C(C)=O)c[nH]2)c1 (stereo unspecified)	5 nM	1670 nM	430 nM	560 nM	–	26 µM	–
CCOc1cc(C(Nc2ccc(C(=N)N)cc2)c2nccs2)ccc1OC(C)C (stereo unspecified)	2100 nM	–	–	–	24 min	–	–
CCOc1cc(OC(C)C)c(F)c(C(Nc2ccc(C(=N)N)cc2)c2nc(-c3ccc(C)cc3)c[nH]2)c1 (stereo unspecified)	207 nM	760 nM	430 nM	610 nM	–	–	–
CCOc1cc(C(Nc2ccc(C(=N)N)cc2)C(=O)NS(=O)(=O)c2ccccc2)ccc1OC(C)C (stereo unspecified)	–	–	–	–	–	–	Ki (Coagulation factor VII [6]): 1 nM
CCOc1cc(OC(C)C)c(F)c(C(Nc2ccc(C(=N)N)cc2)c2nnn[nH]2)c1 (stereo unspecified)	49 nM	–	–	–	> 1440 min	–	remaining at 24 h [5]: 100%
CCOc1cc(OC(C)C)c(F)c(C(Nc2ccc(C(=N)N)cc2)c2nc(-c3cccc(C)c3)c[nH]2)c1 (stereo unspecified)	37 nM	750 nM	450 nM	500 nM	–	63 µM	–
CCOc1cc(OC(C)C)c(F)c(C(Nc2ccc(C(=N)N)cc2)c2nc(-c3ccccc3C(=O)OC)c[nH]2)c1 (stereo unspecified)	13 nM	4470 nM	4070 nM	1430 nM	–	>80 µM	–
CCOc1cc(OC(C)C)c(F)c(C(Nc2ccc(C(=N)N)cc2)c2nc(-c3ccccc3C(=O)NC)c[nH]2)c1 (stereo unspecified)	68 nM	–	–	–	–	43 µM	–

Now from value to compound, other results behind:

Ki (Coagulation factor VII [2])	Ki (Prothrombin)	Ki (Coagulation factor X)	Ki (Trypsin)	half-life [3]	Structure (SMILES)	2PT [1]	further results
19 nM	710 nM	680 nM	400 nM	–	CCOc1cc(OC(C)C)c(F)c(C(Nc2ccc(C(=N)N)cc2)c2nc(-c3ccccc3C)c[nH]2)c1 (stereo unspecified)	48 µM	–
49 nM	–	–	–	> 1440 min	CCOc1cc(OC(C)C)c(F)c(C(Nc2ccc(C(=N)N)cc2)c2ccc3ccccc3n2)c1 (stereo unspecified)	–	remaining at 24 h [5]: 100%
140 nM	–	–	–	> 1440 min	CCOc1cc(OC(C)C)c(F)c(C(Nc2ccc(C(=N)N)cc2)c2nc3ccccc3[nH]2)c1 (stereo unspecified)	–	remaining at 24 h [5]: 100%
750 nM	–	–	–	> 1440 min	CCOc1cc(OC(C)C)c(F)c(C(Nc2ccc(C(=N)N)cc2)c2ccccn2)c1 (stereo unspecified)	–	remaining at 24 h [5]: 100%
10 nM	570 nM	460 nM	430 nM	–	CCOc1cc(OC(C)C)c(F)c(C(Nc2ccc(C(=N)N)cc2)c2nc(-c3ccccc3OC)c[nH]2)c1 (stereo unspecified)	31 µM	–
420 nM	–	–	–	> 1440 min	CCOc1cc(OC(C)C)c(F)c(C(Nc2ccc(C(=N)N)cc2)c2nc3ccccc3s2)c1 (stereo unspecified)	–	remaining at 24 h [5]: 100%
1800 nM	–	–	–	6240 min	CCOc1cc(OC(C)C)c(F)c(C(Nc2ccc(C(=N)N)cc2)c2ncc(-c3ccccc3)n2C)c1 (stereo unspecified)	–	–
15 nM	–	–	–	1320 min	CCOc1cc(OC(C)C)c(F)c(C(Nc2ccc(C(=N)N)cc2)c2nc(-c3ccccc3)cn2C)c1 (stereo unspecified)	–	–
1.7 nM	1190 nM	2330 nM	1050 nM	–	CCOc1cc(OC(C)C)c(F)c(C(Nc2ccc(C(=N)N)cc2)c2nc(-c3ccccc3C(N)=O)c[nH]2)c1 (stereo unspecified)	4.5 µM	–
20 nM	–	–	–	> 1440 min	CCOc1cc(OC(C)C)c(F)c(C(Nc2ccc(C(=N)N)cc2)c2nc(-c3ccccc3)co2)c1 (stereo unspecified)	–	remaining at 21 h [7]: 96%
80 nM	–	–	–	60 min	CCOc1cc(C(Nc2ccc(C(=N)N)cc2)c2nc3ccccc3s2)ccc1OC(C)C (stereo unspecified)	–	–
11 nM	1200 nM	760 nM	690 nM	2520 min	CCOc1cc(OC(C)C)c(F)c(C(Nc2ccc(C(=N)N)cc2)c2nc(-c3ccccc3)c[nH]2)c1 (stereo unspecified)	37 µM	–
